Results from patent US20160009769A1, “PROCESSES FOR ISOLATING SALICYCLIC ACID RECEPTORS” (NEOPRO LABS, LLC, priority 2013, published 2016).

Legend:
SARP [1] = test: Dynamic light scattering (DLS) of SARP micelles/gel in water; format: biochemical, Sauromatum; settings: for micelle size after 20 min: 20 min after addition to 0.1 pM SARP in water; for micelle size upon addition: added to 0.1 pM SARP in water
Method: Organized droplets are seen under the light microscope when SARP solution is spread on a glass slide. Upon addition of DTT or mercaptoethanol the micelle size reduces to ˜300 nm, and after 20 min, the size increases back to ˜800 nm. […] The swelling and shrinking were discontinuous. Addition of 10 μM ATP stops the oscillation for ˜30 min. and then it is resumed at the same kinetics.
FIG. 11. SARP was purified from D-day appendices using RP-HPLC-ESI-MS. Purified SARP was solubilized in distilled water and analyzed using DLS. […] T, period.
Upon addition of water to the dry protein at a final concentration of 0.1 pM, micelles formed with a uniform size of ˜800 nm (FIG. 5). Upon addition of DTT or β-mercaptoethanol the micelle size reduced to ˜300 nm, and after 20 min, the size increased back to ˜800 nm. […] Addition of 10 μM ATP stopped the oscillation for ˜30 min. and then it resumed with the same kinetics.

Sauromatum appendix = settings: cited from earlier work; for triggering of heat production: S. guttatum
SARP [2] = test: ESI-MS charge state distribution (conformation) of SARP from Sauromatum appendix after treatment with salicylates; set-up: species or system Sauromatum guttatum
From the text: It is an aspect of the present invention to provide a method of detection and characterization of SARP using RP-HPLC/ESI-MS. This is accomplished using on-line splitting of 5 to 10% of the effluent from the UV detector to a Micromass Quattro II tandem quadrupole MS fitted with an ESI source (Waters Inc.) via a variable splitter allowing manual fraction collection. This instrument is operated in a positive ESI mode at a probe tip voltage of 3.6 kV and a cone voltage of 45 V. The source and nebulizer temperatures are maintained at 150 and 400° C., respectively, using N2 as both nebulizing and bath gas. The instrument is calibrated using water clusters over the range of 100-2400 Da with data acquisition is carried out from m/z 500 to 2000 in the continuum-scanning mode at 450 Da sec^1. Instrument tuning, mass calibration, data acquisition, processing and display are accomplished using MassLynx™ and MaxEnt™ software (Waters Inc.). This procedure provided a protein molecular mass with an accuracy of ˜0.1%.
FIG. 13. […] The ESI-MS spectra is different that that of ASA and SA. It is more expanded, lower m/z values.
Monomeric SARP undergoes a large-scale conformation transition from one state to another in the Sauromatum appendix during development. […] The concentration of SA in the appendix tissue is ˜1 μg/g fresh wt^4, and it is equivalent to ˜7 μM, within the range of this experiment.

SARP [3] = test: UV spectra of SARP in the presence of ligands; format: biochemical; settings: 1 pM SARP
Method: FIG. 14. UV spectra of SAR in the presence of 2,6-DHBA. Freshly dissolved SAR was incubated with 2,6-DHBA and samples were taken for spectral analysis at the same time when the effect of SA on SAR was determined. The data present acquired spectra after baseline subtraction of each compound added to SAR. Every 3 min. after the addition of SAR a spectrum was recorded. A, The first 6 spectra were downward relative to the baseline (solid line). The following spectra were upward (broken line). (ME, β-mercaptoethanol).
FIG. 15. UV spectra of SAR in the presence of GTP, SA, and ATP. Freshly dissolved SARP was incubated with GTP and samples were taken for spectral analysis. Later, ME and SA were added to the sample, and finally ATP was added to the sample. The data present acquired spectra after baseline subtraction of each compound added to SARP. […] (ME, β-mercaptoethanol).
Thus, according to certain related embodiments, UV absorbance spectra of SARP may fluctuate over time when absorbance measurements are collected over a range of wavelengths and at a plurality of time points, if a salicylate-related compound is present or, under other chemical environments as described below. […] In certain preferred embodiments the change may be detected at wavelengths from (inclusively) 190 nm to 280 nm, where it will be appreciated that selection of a suitable wavelength may vary as a function of several factors including protein concentration, solution composition (e.g., absorbance properties of buffers, salts, etc.), instrument sensitivity, and other related attributes of a spectroscopic configuration.

SARP [4] = test: Reduction of tetrazolium salts by SARP in the presence of pyridine; format: biochemical; settings: tetrazolium salt 4 μM, pyridine 30%, 5 min at room temperature; mean of two determinations
From the text: Additionally and as described herein, SARPs are capable of unidirectionally transferring one or two electrons to an electron acceptor such as 3-(4,5-dimethyl thiazol-2-yl-(2,5-diphenyl) tetrazolium bromide (MTT), nitro blue tetrazolium (NBT) or neotetrazolium chloride (Neo-NBT), or to ferricytochrome c.

SARP [5] = test: Effect of SA on the levels of SARP in the Sauromatum appendix; set-up: species or system Sauromatum guttatum; settings: D-1 appendix placed in 10 μM SA, protein extracted next morning; control in water 160
Method: In certain embodiments SARP is isolated using organic solutions. Tissues are ground n a juicer grinder in an organic extraction solution containing 50% IP, 2 mM β-mercaptoethanol, 0.5 mM EDTA, 5 mM butylated hydroxy-toluene, 0.1% tocopherol acetate, 0.1% polyvinylpoly-pyrrolidone (insoluble, Sigma-Aldrich Corp.) in 40 mM imidazole/HCl buffer, pH 7.0, at a weight/volume ratio of 1 g of tissue per 5 ml of extraction solution. The extract is centrifuged at 15,000 g for 10 min and the pellet is discarded. A strong cationic resin (DOWEX X-50, Sigma-Aldrich Corp.) is added to the supernatant (30 mg resin per ml) and stirred for 2.5 h at 4° C. The mixture is then centrifuged at 30 g for 2 min, and the supernatant is discard. The Dowex resin is washed several times, first with the extraction solution and finally with distilled water until a clear wash is obtained. Subsequently, the resin is again washed 2 times with 0.15 M phosphate buffer, pH 7.0. […] The protein solution is dialyzed using a 12-14 kDa cut-off dialysis bag against 3 L of distilled water at 4° C., the water is changed twice during 24 h. The content of the dialysis bag is removed and centrifuged at 10,000 g for 15 min. The pellet is used for SARP purification.
In certain embodiments SARP is purified using a reversed-phase high-performance liquid chromatography (RP-HPLC) on-line to elecrosray ionization-mass spectromer (ESI-MS). […]

Human SARP = test: ESI-MS conformation of SARP purified from SK-N-SH cells treated with SA; format: cell-based; settings: SK-N-SH cells treated with 10 μM
From the text: The charge state distribution (CSD) of the human SARP is identical to its plant counterpart from the Sauromatum appendix during heat-production. […] This regulatory activity behaves as a metabolic switch that switching on and off heat-production. SARP can be a metabolic switch in the cytoplasm and mitochondria. […] However, if SA level fluctuates, SARP can be either in state B (compact) or state A (extanded) and consequently, can trigger oscillatory thermogenicity. In a more complex model, the cytoplasmic and the mitochondrial switch will have to be to be in state B. There are four possibilities for the output for both switches. When both switches are in states B, a singular event of heat-production occurs. Other options are cytoplasmic SARP in state A and mitochondrial SARP in either state A or B. Or, cytoplasmic SARP in state B and mitochondrial SARP in state A.
FIG. 16. Purification of SARP from SK-N-SH cells using perfusion chromatography. SARP was purified using RP-HPLC/ESI-MS. TIC chromatogram with solvent gradient overlay (A). Ion current chromatograms of m/z 1139 (B) and 1178, (C) corresponding to [M+30H]^30+ and […] charge states of the protein. Solvent A is 0.05% TFA in aqueous solution and solvent B is 0.05% aqueous TFA in ACN:IP at a ratio 2:1.
FIG. 17. Electrospray ionization mass spectrua of SARP from the SK-N-SH cells and Sauromatum appendix. […]

[6] = higher concentrations, 100 and 200 μM

## O[C@H](CS)[C@H](O)CS (racemic) [DTT, dithiothreitol]
SARP [1]
  micelle size after 20 min: ~800 nm
  micelle size upon addition: ~300 nm

## O=C(O)c1c(O)cccc1O [2,6-DHBA, 2,6-dihydroxybenzoic acid]
Sauromatum appendix
  triggering of heat production: can also trigger heat production
SARP [2]; D-2 and D-3 appendix sections incubated overnight in 100 μM
  ESI-MS spectra of SARP compared with ASA and SA: more expanded
SARP [2]; [6]
  conformational state of SARP: conformations that are more extended than state A
SARP [3]; incubation with NADH
  effect on UV spectrum of SARP: did not exert the same effect

## O=C(O)c1ccc(O)c(O)c1 [3,4-DHBA, 3,4-dihydroxybenzoic acid]
SARP [3]; incubation with NADH
  effect on UV spectrum of SARP: did not exert the same effect

## CC(=O)Oc1ccccc1C(=O)O [ASA, aspirin]
Sauromatum appendix
  triggering of heat production: can also trigger heat production

## Nc1ncnc2c1ncn2[C@@H]1O[C@H](COP(=O)(O)OP(=O)(O)OP(=O)(O)O)[C@@H](O)[C@H]1O [ATP]
SARP [1]; 10 μM added to oscillating SARP gel
  time the oscillation is stopped: ~30 min

## Cc1nc(-[n+]2nc(-c3ccccc3)nn2-c2ccccc2)sc1C.[Br-] [MTT]
SARP [4]
  O.D.530: 0.17

## COc1cc(-c2ccc(-n3nc(-c4ccccc4)n[n+]3-c3ccc([N+](=O)[O-])cc3)c(OC)c2)ccc1-n1nc(-c2ccccc2)n[n+]1-c1ccc([N+](=O)[O-])cc1 [NBT, nitro blue tetrazolium]
SARP [4]
  O.D.530: 0.14

## c1ccc(-c2nn(-c3ccccc3)[n+](-c3ccc(-c4ccc(-[n+]5nc(-c6ccccc6)nn5-c5ccccc5)cc4)cc3)n2)cc1 [NeoT, neotetrazolium chloride]
SARP [4]
  O.D.530: 0.06

## O=C(O)c1ccccc1O [SA, salicylic acid]
Sauromatum appendix; added on D-1 morning, the next morning, untreated section stays at ambient temperature
  temperature rise of appendix section: up to 32 °C
SARP [5]
  SARP (ng/g fresh wt.): 30 ng/g fresh wt.
SARP [1]; 1 pM, molar ratio [SARP]/[SA]<0.1
  effect on micelle size: immediately decreased the micelle size
SARP [1]; after addition of 1 pM SA
  period of gel expansion/shrinking oscillation: 4 to 5 min
SARP [2]; 10 μM applied to pre D-day appendices
  conformational state of SARP: induced a transition from state A in which SA undetectable in the tissue to state B
SARP [2]; [6]
  conformational state of SARP: conformations that are more extended than state A
Human SARP
  conformation of human SARP: a shift to a much more compact conformation
SARP [3]; incubation of SA and GTP and ATP
  effect on UV spectrum of SARP: appearance of new bands from 197 to 230
SARP [3]; incubation with NADH
  effect on UV spectrum of SARP: a shift in a band from 197 to 230

## OCCS [β-mercaptoethanol]
SARP [1]
  micelle size after 20 min: ~800 nm
  micelle size upon addition: ~300 nm
